# Measured values taken from patent publication US11446352B2, “Compositions and methods for inhibiting tumor-induced immune suppression” (priority 2017, dated 2022).
# Legend:
# [1] = test system: Hsp90 client proteins, Hsp70, Hsp27; assay: Western blots of cytosols from cell lines treated with 17-AAG or EnnA; type: cell-based, human
# Source text: The first bar indicates 100% folding activity of RRL without inhibitor. PR22 indicates the antibody without PR but with RRL and EnnA. PR represents the antibody (PR22) with PR but without RRL. All other samples have PR22, PR, and RRL without (first bar) or with increased concentration of EnnA. FIGS. 1C-1E are line graphs of cell survival versus EnnA concentration (μM) in breast cancer cell lines Hs578T (FIG. 1C), […] (FIG. 1D) and MDA-MB231 (FIG. 1E) upon treatment with EnnA for 48 and 72 h. […] PR alone (PR), antibody (PR22)+RRL, PR+RRL without inhibitor (RRL), PR+RRL with 1 μM 17-AAG (17AAG) PR+RRL with 10 μM BEAU or EnnA. FIGS. 1G-1I are autoradiographs of Western blots of cytosols from various cell lines treated with 17-AAG (1 μM) or EnnA (3 μM) with antibodies against the specified proteins. FIG. 1J is an autoradiograph showing EnnA causes autophagy in Hs578T and MDA-MB453 cell lines. FIGS. 1K-1N are electron microscopy micrographs showing autophagosomes and reduced mitochondria content in Hs578T cells treated with DMSO or EnnA. FIGS. 1O-1P are fluorescence micrographs showing EnnA causing reduced mitochondria content in Hs578T cells. FIGS. 1Q-1BB are fluorescence micrographs showing mitophagy in Hsp578T cells treated with EnnA as indicated by colocalization of the mitochondria marker Cox4 and the autophagy marker LC3BII.
# [2] = test system: E0771 tumor microenvironment; assay: analysis of tumors and splenocytes from EnnA-treated mice (Western blot, FACS, immunohistochemistry, immunofluorescence); type: in vivo
# Method: FIG. 5A is a line graph of tumor volume (mm^3) versus time (days) of mice injected with 100,000 E0771. Ten days after surgery, mice were divided into two groups: the EnnA group was injected with 10 mg/kg of EnnA. every other day, and the control group received a mixture of 15% DMSO and 20% cremophor in PBS. FIG. 5B is a line graph of body weight versus time (days) of mice treated with DMSO or EnnA. FIG. 5C is autoradiograph of a Western blot of four animals from each group using the indicated specific antibodies. FIG. 5D is a bar graph of % of gated cells treated with DMSO or EnnA showing FACS analysis of tumor cells for PDL1. FIG. 5E-5J is a panel of micrographs showing immunohistochemistry analysis of H&E staining of tumors from control and EnnA mice for analysis of necrotic tissue. FIGS. 5K-5P is a panel of micrographs showing immunohistochemistry analysis of tumors from control and EnnA mice for analysis of immune cells infiltration using anti-CD45 antibody. FIG. 5Q is a bar graph of % of gated cells treated with DMSO showing that EnnA treatment reduces CD4+/Foxp3+ Tregs. FIG. 5R is a bar graph of % of gated cells treated with DMSO or EnnA showing that EnnA treatment reduces CD11b+Gr-1+ MDSCs. FIG. 5S is a bar graph of % of gated cells treated with DMSO or EnnA showing that EnnA treatment reduces the number of CD8+/PD-1+ lymphocytes. FIG. 5T is a bar graph of % of cells treated with DMSO or EnnA showing that EnnA treatment increase the number of GR-1-CD11c+CD103+ lymphocytes.
# FIGS. 8A-8L show immunofluorescent staining of E0771 tumors using anti-CD45 and anti-CD8β antibodies. FIGS. 8M-8T show immunofluorescent staining of E0771 tumors using anti-CD45 and anti-CTLA-4 antibodies. […] FIG. 8V is a bar graph showing the results of FACS analysis of CD8 positive cells in E0771 tumor-bearing mice treated with DMSO, EnnA, αCD8, or EnnA+αCD8. The X axis represents treatment group and the Y axis represents percent CD8 positive cells. FIG. 8W is a model for EnnA inhibition of Hsp 90 machinery and its impacts on the immune suppressive mechanism through PD-1 and IDO.
# 100,000 E0771 cells were surgically implanted in mammary fat pad of 20 mice. Ten days after surgery, mice were divided into two groups: the EnnA group was injected with 10 mg/kg of EnnA every other day, and the control group received a mixture of 15% DMSO and 20% cremophor in PBS.
# [3] = test system: Hsp90β on the surface of E0771 and AT3 cells; assay: FACS analysis of Hsp90β expression on the cell surface; type: cell-based, murine; settings: in vitro (E0771, AT3 cell culture) and in vivo (E0771 tumors)
# Source text: FIGS. 2I-2K show FACS analysis of Hsp90β expression on the cell surface of E0771 cells treated with DMSO or EnnA. FIGS. 2L-2N show FACS analysis of the ratio of Hsp90α to Hsp90β expression on the cell surface of E0771 cells treated with DMSO or EnnA. FIGS. 2O-2Q show FACS analysis of Hsp90α expression on the cell surface of E0771 cells treated with DMSO or EnnA. FIG. 2R is a bar graph showing expression of Hsp90β on the surface of AT3 cells treated with DMSO or EnnA. FIG. 2S is a bar graph showing expression of Hsp90α on the surface of AT3 cells treated with DMSO or EnnA. FIGS. 2T-2X show FACS analysis of Hsp90β expression on the surface of E0771 tumor cells treated with mIgG, DMSO, or EnnA.
smiles,measurement,setting,value
"CC[C@H](C)[C@H]1C(=O)O[C@H](C(C)C)C(=O)N(C)[C@@H]([C@@H](C)CC)C(=O)O[C@H](C(C)C)C(=O)N(C)[C@@H]([C@@H](C)CC)C(=O)O[C@H](C(C)C)C(=O)N1C [EnnA, Enniatin A]",stability of Hsp90 client proteins,[1]; EnnA 3 μM,destabilization
same,induction of Hsp27,[1]; MAD-MB-453 cells,slightly induced
same,overexpression of Hsp70,"[1]; all cell lines tested, EnnA 3 μM",does not induce overexpression
same,PD-1 expression of infiltrating CD8+ lymphocytes,[2]; FACS,lower levels
same,number of CD4+Foxp3+ T regulatory cells (Tregs) in tumors,[2]; FACS,significantly reduced
same,number of MDSCs in tumors,"[2]; FACS, CD11b+Gr-1+",significantly reduced
same,number of GR-1-CD11c+CD103+ lymphocytes,"[2]; FACS, FIG. 5T",increase
same,tumor necrosis,[2]; H&E staining,heavily necrotic
same,Hsp90 client proteins in tumors,[2]; Western blot of tumors from treated mice,destabilized
same,infiltration of tumors by T lymphocytes,[2]; anti-CD45 immunohistochemistry,massive infiltration
same,"infiltration of tumors with CD45+, CD8β+ T cells",[2]; immunofluorescent staining,higher infiltration
same,proportion of CD8β cells in spleenocytes,"[2]; tumor bearing animals, FACS",increase
same,PD-L1 and IDO in vivo,"[2]; tumors, Western blot and FACS",destabilizes
same,exposure of Hsp90β to the surface of cancer cells,[3],induces exposure
